Data on 12 compounds can be found in ChEMBL document CHEMBL5346860, “Cancer multidrug-resistance reversal by ABCB1 inhibition: A recent update” (Eur J Med Chem, 2022).

By IC50 is commonly meant the concentration that gives 50% inhibition.

Data set [1] is described as follows: Reversal of drug resistance in paclitaxel-resistant human TOV-21G cells assessed as fold change in paclitaxel IC50 in presence of paclitaxel. It is filed as functional, paclitaxel-resistant human TOV-21G cell.
Data set [2] can be described thus: Reversal of drug resistance in paclitaxel-resistant human OVCAR-3 cells assessed as fold decrease in paclitaxel IC50 in presence of paclitaxel. It is filed as functional, paclitaxel-resistant human OVCAR-3 cell.
Data set [3] is described as follows: Antiproliferative activity against daunorubicin-resistant human EPG85-257 cells incubated for 72 hrs by annexin-V-PI staining based flow cytometry. Format: functional, EPG85-257RDB. In general terms: Flow cytometry measures light scatter and fluorescence of single cells or particles in a stream.
The nature of data set [4]: cells. Conditions: Homo sapiens, EPP85-181RDB, 72 h.
Description: Antiproliferative activity against daunorubicin-resistant human EPP85-181 cells incubated for 72 hrs by annexin-V-PI staining based flow cytometry
For the next data set, the system named is L5178Y. Briefly: Cytotoxicity against multi-drug resistant mouse L5178Y cells expressing ABCB1 assessed as cell growth inhibition incubated for 24 hrs by MTT assay. It is filed as functional, cell-based. A general note: Formazan colour is commonly taken as a measure of viable cells.
The next data set has as its system KB-V1. As to the kind of experiment: cells. The following applies: Homo sapiens, KB-V1, 72 h.
The test system of a further data set is KB 3-1. As to the kind of experiment: cells. Conditions: Homo sapiens, KB 3-1, 72 h.
A short description of data set [5]: Antiproliferative activity against human Flp-In-293 cells expressing ABCB1 assessed as cell growth inhibition incubated for 72 hrs by SRB assay. Format: toxicity, cell-based. For orientation: Sulforhodamine B stains cellular protein and so reports cell mass.
The next data set has as its system HeLa S3. Briefly: cells. Conditions: Homo sapiens, HeLa S3, 72 h.
A short description of data set [6]: cells. Conditions: Homo sapiens, KBVIN, 72 h.
Description: Antiproliferative activity against multidrug-resistant human KB-VIN cells assessed as cell growth inhibition incubated for 72 hrs by SRB assay
For a further data set, the system named is HL-60. Briefly: Antiproliferative activity against human HL-60 cells assessed as inhibition of cell survival by MTT assay. Format: functional. The following applies: read-out: LC50 (the source's name).
A further data set concerns U-937. Briefly: Antiproliferative activity against human U-937 cells assessed as inhibition of cell survival by MTT assay. Format: functional. The following applies: read-out: LC50 (the source's name).
Data set [7] is described as follows: Antiproliferative activity against human HaCaT cells assessed as inhibition of cell survival by MTT assay. It is filed as toxicity, cell-based. Conditions: read-out: LC50 (the source's name).
Data set [8] is described as follows: Antiproliferative activity against human BJ cells assessed as inhibition of cell survival by MTT assay. The following applies: read-out: LC50 (the source's name). It is filed as toxicity, cell-based.
The subject of another data set is SH-SY5Y. As to the kind of experiment: Antiproliferative activity against human SH-SY5Y cells assessed as inhibition of cell survival by MTT assay. Format: functional. The following applies: read-out: LC50 (the source's name).
A further data set relates to HEK293. Briefly: Antiproliferative activity against human HEK293 cells assessed as inhibition of cell survival by MTT assay. Format: functional. The following applies: read-out: LC50 (the source's name).
Data set [9] addresses Multidrug resistance-associated protein 1 (Homo sapiens, UniProt P33527). As to the kind of experiment: Inhibition of MRP1 efflux pump in human MCF7 cells assessed as fold increase in vinblastine cellular accumulation. Format: cell-based.
For data set [10], the target named is T1, ATP-dependent translocase ABCB1 (Homo sapiens, UniProt P08183). As to the kind of experiment: Inhibition of P-gp efflux pump in human MCF7 cells assessed as fold increase in vinblastine cellular accumulation. Format: cell-based.
T1 sequence (P08183 whole entry): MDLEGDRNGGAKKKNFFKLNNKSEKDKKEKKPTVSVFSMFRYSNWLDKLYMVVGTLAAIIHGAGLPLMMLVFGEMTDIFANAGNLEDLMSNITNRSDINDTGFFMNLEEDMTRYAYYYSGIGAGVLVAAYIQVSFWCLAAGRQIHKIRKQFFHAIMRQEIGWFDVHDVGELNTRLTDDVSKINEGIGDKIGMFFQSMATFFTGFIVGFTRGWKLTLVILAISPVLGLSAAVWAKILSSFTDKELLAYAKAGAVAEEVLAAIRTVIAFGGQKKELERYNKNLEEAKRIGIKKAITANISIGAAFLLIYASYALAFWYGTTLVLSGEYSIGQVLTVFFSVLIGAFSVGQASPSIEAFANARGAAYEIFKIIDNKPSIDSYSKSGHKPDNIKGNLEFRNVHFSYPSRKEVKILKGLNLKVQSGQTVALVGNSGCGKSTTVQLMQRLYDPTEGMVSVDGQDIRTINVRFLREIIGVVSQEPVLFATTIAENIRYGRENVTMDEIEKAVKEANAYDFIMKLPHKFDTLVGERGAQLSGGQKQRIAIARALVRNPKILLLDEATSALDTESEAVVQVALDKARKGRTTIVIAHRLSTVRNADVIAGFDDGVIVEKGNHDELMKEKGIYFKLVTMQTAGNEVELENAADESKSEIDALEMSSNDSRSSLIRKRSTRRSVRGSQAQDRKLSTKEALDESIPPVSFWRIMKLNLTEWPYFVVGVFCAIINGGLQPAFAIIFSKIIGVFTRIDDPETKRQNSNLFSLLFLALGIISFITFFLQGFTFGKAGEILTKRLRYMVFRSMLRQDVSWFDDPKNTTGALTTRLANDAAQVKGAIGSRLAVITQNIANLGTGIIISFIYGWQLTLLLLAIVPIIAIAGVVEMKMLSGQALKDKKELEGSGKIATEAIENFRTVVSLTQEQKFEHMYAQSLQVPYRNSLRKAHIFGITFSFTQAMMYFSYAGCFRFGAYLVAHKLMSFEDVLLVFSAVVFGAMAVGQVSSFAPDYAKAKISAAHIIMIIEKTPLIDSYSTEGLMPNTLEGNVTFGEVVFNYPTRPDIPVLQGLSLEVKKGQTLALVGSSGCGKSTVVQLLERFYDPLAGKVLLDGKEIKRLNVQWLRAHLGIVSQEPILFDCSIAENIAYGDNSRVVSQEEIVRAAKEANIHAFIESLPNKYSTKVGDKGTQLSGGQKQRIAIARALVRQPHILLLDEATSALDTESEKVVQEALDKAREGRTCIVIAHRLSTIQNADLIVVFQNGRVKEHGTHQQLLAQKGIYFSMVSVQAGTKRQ
For data set [11], the target named is T2, Broad substrate specificity ATP-binding cassette transporter ABCG2 (Homo sapiens, UniProt Q9UNQ0).
T2 sequence (Q9UNQ0 whole entry): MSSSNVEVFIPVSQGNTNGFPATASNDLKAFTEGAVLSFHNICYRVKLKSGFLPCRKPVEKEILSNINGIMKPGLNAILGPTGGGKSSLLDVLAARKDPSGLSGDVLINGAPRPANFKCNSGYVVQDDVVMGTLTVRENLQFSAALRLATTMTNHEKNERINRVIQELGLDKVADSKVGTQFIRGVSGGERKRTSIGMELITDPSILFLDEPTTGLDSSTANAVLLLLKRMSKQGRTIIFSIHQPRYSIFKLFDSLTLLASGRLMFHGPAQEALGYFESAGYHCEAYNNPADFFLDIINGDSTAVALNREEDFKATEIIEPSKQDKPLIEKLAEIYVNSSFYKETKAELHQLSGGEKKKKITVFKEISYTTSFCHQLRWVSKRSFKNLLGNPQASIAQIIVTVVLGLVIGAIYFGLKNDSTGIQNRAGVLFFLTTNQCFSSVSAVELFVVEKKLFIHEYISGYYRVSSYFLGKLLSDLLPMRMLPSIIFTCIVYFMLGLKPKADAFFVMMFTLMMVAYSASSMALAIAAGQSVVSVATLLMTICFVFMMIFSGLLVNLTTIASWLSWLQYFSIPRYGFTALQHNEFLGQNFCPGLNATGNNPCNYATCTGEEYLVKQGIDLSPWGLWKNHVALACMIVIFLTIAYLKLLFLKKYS
As to the kind of experiment: Inhibition of BCRP efflux pump in human MCF7 cells assessed as fold increase in vinblastine cellular accumulation. It is filed as cell-based.

For data set [12], the target named is T1, ATP-dependent translocase ABCB1. Briefly: Inhibition of ABCB1 in human HEK293 cells. It is filed as cell-based.
Another data set concerns ADR5000 cell line. Briefly: Antitumor activity against human CEM/ADR5000 cells assessed as fold increase in doxorubicin accumulation. It is filed as functional.

Converted amounts (≈) assume the structure as drawn.

Chain of Multidrug resistance-associated protein 1 (P33527 whole entry): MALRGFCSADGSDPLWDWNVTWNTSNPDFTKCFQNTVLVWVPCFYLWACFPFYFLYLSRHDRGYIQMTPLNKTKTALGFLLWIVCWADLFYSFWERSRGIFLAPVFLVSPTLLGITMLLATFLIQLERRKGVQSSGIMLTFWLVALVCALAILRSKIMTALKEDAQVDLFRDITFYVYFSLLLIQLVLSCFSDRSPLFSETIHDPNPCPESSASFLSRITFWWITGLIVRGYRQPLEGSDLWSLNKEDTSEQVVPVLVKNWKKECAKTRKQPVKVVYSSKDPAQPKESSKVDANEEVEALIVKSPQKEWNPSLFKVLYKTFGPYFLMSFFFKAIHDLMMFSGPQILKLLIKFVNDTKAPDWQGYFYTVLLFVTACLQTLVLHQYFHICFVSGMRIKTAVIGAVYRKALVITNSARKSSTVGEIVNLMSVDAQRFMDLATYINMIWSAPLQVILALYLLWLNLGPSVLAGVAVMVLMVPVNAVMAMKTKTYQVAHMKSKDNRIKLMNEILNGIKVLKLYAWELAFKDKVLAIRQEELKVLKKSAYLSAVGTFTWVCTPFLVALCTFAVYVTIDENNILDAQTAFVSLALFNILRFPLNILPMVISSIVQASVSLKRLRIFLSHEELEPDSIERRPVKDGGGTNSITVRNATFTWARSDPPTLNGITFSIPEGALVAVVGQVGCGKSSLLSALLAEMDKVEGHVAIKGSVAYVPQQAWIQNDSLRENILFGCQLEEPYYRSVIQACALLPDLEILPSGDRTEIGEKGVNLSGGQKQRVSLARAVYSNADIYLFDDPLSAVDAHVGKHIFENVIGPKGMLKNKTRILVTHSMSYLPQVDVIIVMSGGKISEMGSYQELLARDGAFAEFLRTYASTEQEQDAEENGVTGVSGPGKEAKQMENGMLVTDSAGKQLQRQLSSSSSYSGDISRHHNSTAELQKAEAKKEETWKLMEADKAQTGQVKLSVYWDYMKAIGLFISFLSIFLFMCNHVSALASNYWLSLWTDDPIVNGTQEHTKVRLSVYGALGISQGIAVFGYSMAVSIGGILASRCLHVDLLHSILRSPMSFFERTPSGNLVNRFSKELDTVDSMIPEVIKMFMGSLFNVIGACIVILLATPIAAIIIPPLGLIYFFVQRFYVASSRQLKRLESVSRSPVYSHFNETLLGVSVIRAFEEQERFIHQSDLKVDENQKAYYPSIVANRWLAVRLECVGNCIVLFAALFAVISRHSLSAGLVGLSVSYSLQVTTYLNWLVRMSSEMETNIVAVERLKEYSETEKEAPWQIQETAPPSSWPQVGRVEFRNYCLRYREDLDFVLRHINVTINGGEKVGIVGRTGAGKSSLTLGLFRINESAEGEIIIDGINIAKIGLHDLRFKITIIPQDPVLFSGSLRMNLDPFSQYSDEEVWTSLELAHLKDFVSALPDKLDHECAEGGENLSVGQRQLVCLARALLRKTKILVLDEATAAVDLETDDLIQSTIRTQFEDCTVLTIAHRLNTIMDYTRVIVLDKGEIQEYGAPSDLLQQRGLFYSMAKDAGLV
Description for HeLa S3: Antiproliferative activity against drug-sensitive human HeLaS3 cells assessed as cell growth inhibition incubated for 72 hrs by SRB assay
Description for KB 3-1: Cytotoxicity against human KB 3-1 cells assessed as cell growth inhibition incubated for 72 hrs by MTS assay
Description for KB-V1: Cytotoxicity against human KB-V1 cells assessed as cell growth inhibition incubated for 72 hrs by MTS assay

Regarding `C=CC(=O)N1CCC(Oc2cc3c(Nc4ccc(Cl)c(Cl)c4F)ncnc3cc2OC)CC1` [POZIOTINIB], the “fold change (FC)” value in data set [1] is recorded as 20.7; in [2], 6.2.

Compound `COc1cc([C@@H]2c3cc4c(cc3[C@@H](O[C@@H]3O[C@@H]5CO[C@@H](C)O[C@H]5[C@H](O)[C@H]3O)[C@H]3COC(=O)[C@H]23)OCO4)cc(OC)c1O` [ETOPOSIDE] showed an IC5 in data set [3] of 6.2 µM. Besides, the IC50 in the data set “cells [4]” was found to be 62 µM.

`CS(=O)(=O)CCNCc1ccc(-c2ccc3ncnc(Nc4ccc(OCc5cccc(F)c5)c(Cl)c4)c3c2)o1` [LAPATINIB]: the “fold change (FC)” value in data set [1] came to 20.7; in data set [2] it was 6.2.

As to `O=C(C(C(=O)C(F)(F)F)=P(c1ccccc1)(c1ccccc1)c1ccccc1)c1ccccc1`, in the data set with L5178Y, the 50% inhibitory concentration (IC50) is 37 µg/mL (≈ 77.7 µM).

Regarding `COc1ccc(CCC2c3cc(OCc4ccccc4)c(OC)cc3CCN2C)cc1OCc1ccccc1` (racemic), the IC50 came to 15.1 µM in the data set on KB-V1 and 11.5 µM in the data set on KB 3-1.

Take `CC[C@]1(O)C[C@H]2CN(CCc3c([nH]c4ccccc34)[C@@](C(=O)OC)(c3cc4c(cc3OC)N(C=O)[C@H]3[C@@](O)(C(=O)OC)[C@H](OC(C)=O)[C@]5(CC)C=CCN6CC[C@]43[C@@H]65)C2)C1` [VINCRISTINE]: in data set [5], the half-maximal inhibitory concentration (IC50) at 72 h was less than 40 µM. Besides, the half-maximal inhibitory concentration (IC50) with HeLa S3 and in the data set “cells [6]” was less than 40 µM throughout.

For `Cc1cn(-c2cc(NC(=O)c3ccc(C)c(Nc4nccc(-c5cccnc5)n4)c3)cc(C(F)(F)F)c2)cn1` [NILOTINIB], the CC50 amounted to 1.7 µM in the data set with HL-60; 2.3 µM with U-937; 3.9 µM in data set [7]; 5.6 µM in data set [8]; 4.2 µM with SH-SY5Y; 5.9 µM with HEK293.

For the compound `CCCN(CCC)S(=O)(=O)c1ccc(C(=O)CC[C@H](N)C(=O)O)cc1`, the “fold change (FC)” value in data set [9], in data set [10] and in data set [11] was 3 in each case.

Turning to `COc1cccc2c1C(=O)c1c(O)c3c(c(O)c1C2=O)C[C@@](O)(C(=O)CO)C[C@@H]3O[C@H]1C[C@H](N)[C@H](O)[C@H](C)O1` [DOXORUBICIN], in data set [5], the IC50 at 72 h was less than 40 µM. The values for the IC50 (in data set [12]; in the data set with HeLa S3; in “cells [6]”) were 0.504 µM, less than 40 µM and less than 40 µM, respectively.

With `C/C=C/C[C@@H](C)[C@@H](O)[C@H]1C(=O)N[C@@H](CC)C(=O)N(C)CC(=O)N(C)[C@@H](CC(C)C)C(=O)N[C@@H](C(C)C)C(=O)N(C)[C@@H](CC(C)C)C(=O)N[C@@H](C)C(=O)N[C@H](C)C(=O)N(C)[C@@H](CC(C)C)C(=O)N(C)[C@@H](CC(C)C)C(=O)N(C)[C@@H](C(C)C)C(=O)N1C` [CYCLOSPORINE], the IC50 in the data set with KB-V1 amounted to 7.95 µM; in the data set with KB 3-1, 23.9 µM.

As for `COc1ccc(CCN(C)CCCC(C#N)(c2ccc(OC)c(OC)c2)C(C)C)cc1OC` (centres undefined) [VERAPAMIL], the “fold change (FC)” value with ADR5000 cell line came out at 4.7.

With `O=C(C(C(=O)C(F)(F)C(F)(F)F)=P(c1ccccc1)(c1ccccc1)c1ccccc1)c1ccccc1`, in the data set with L5178Y, the IC50 came out at 39.4 µg/mL (≈ 74.7 µM).
